According to paper PMC11284788, “NN1213 – A Potent, Long-Acting, and Selective Analog of Human Amylin” (Journal of Medicinal Chemistry, 2024):
≈ marks a conversion by molar mass, not a printed value. Where two headings read alike, the source gives them in different places. Numbered stars: 1 amine (or outer) side, 2 acyl side, 3 side chain; on linkers, the order of the positions; unused ones are H or OH. Bridge positions count the residues as written; N and C are the ends. Peptide text beside a SMILES is read from it. * marks the point of attachment. C20 diacid = O=C(O)CCCCCCCCCCCCCCCCCCC(=O)*; γGlu = O=C(O)[C@H](CCC(=O)[*:2])N[*:1]

Key:
[1] = Solubility versus pH profile
hCTR = target: T1, hCTR (Homo sapiens, UniProt P30988); test: scintillation proximity binding assay, hCTR membranes; design: expressed in transfected cells; host or cells: BHK tk-ts 13, transient (FuGENE 6); membranes for the SPA, whole cells for the species-specific assays
T1 sequence (P30988 25-474): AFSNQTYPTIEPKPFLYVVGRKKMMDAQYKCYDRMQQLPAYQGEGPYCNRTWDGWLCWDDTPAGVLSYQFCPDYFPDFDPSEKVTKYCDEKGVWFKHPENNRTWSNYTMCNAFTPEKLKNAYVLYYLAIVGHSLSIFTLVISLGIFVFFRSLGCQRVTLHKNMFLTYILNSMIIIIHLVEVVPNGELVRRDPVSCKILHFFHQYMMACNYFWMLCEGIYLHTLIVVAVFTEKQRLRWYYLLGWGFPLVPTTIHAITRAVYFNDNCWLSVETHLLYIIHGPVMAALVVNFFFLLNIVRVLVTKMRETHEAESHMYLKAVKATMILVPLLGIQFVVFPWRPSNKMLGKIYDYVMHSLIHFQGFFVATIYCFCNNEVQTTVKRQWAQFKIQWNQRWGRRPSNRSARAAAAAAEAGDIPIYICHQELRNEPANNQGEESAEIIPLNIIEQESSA

rCTR = target: T2, rCTR (Rattus norvegicus, UniProt P32214); test: scintillation proximity binding assay, rCTR membranes
T2 construct: expressed in transfected cells; host or cells: BHK tk-ts 13, transient (FuGENE 6)
T2 sequence (P32214 25-479 isoform P32214-2 limits assumed): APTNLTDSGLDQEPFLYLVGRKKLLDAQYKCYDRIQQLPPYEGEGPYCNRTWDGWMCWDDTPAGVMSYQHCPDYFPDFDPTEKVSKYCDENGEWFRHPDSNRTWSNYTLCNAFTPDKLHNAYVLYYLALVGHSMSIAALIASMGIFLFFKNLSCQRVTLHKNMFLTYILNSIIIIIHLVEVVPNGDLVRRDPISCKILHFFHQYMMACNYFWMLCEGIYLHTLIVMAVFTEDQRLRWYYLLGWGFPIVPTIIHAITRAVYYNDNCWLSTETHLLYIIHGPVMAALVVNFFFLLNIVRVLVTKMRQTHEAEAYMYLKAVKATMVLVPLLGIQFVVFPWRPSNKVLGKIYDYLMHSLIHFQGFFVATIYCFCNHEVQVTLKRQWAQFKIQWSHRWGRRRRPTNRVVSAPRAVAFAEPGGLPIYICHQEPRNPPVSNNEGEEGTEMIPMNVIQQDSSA

hAMY3R = target: T3, hAMY3R (Homo sapiens, UniProt O60896+P30988); test: scintillation proximity binding assay, hAMY3R membranes; design: expressed in transfected cells; host or cells: BHK tk-ts 13, transient co-transfection; membranes for the SPA, whole cells for the species-specific assays; conditions: for ratio hCTR/hAMY3R: ratio of binding IC50 values
T3 sequence (P30988 25-474): T1 sequence (P30988 25-474)
T3 sequence (O60896 24-148 partner): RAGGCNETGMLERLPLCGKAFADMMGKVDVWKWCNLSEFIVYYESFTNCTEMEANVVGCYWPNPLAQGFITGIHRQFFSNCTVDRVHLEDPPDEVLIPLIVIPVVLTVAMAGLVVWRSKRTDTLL

[2] = bis-tris-propane buffer, pH 6, aqueous buffer
[3] = bis-tris-propane buffer, pH 6.5, aqueous buffer
[4] = bis-tris-propane buffer, pH 7, aqueous buffer
[5] = bis-tris-propane buffer, pH 7.5, aqueous buffer
[6] = bis-tris-propane buffer, pH 8, aqueous buffer
[7] = lactate buffer, pH 4, aqueous buffer
[8] = lactate buffer, pH 5, aqueous buffer
[9] = SPA binding assay, Tables S13 and S15

SMILES	solubility kinetic [1, 2] [µM]	solubility kinetic [1, 3] [µM]	solubility kinetic [1, 4] [µM]	solubility kinetic [1, 5] [µM]	solubility kinetic [1, 6] [µM]	solubility kinetic [1, 7] [µM]	solubility kinetic [1, 8] [µM]	IC50 (hCTR; SPA binding assay, Tables S13 and S15, read-out: hCTR pIC50 (converted)) [µM]	IC50 (hCTR; SPA, BHK cell membranes, 125I-Calcitonin 75 pM, 120 min 25 °C, read-out: hCTR IC50) [µM]	IC50 (rCTR; SPA binding assay, Tables S13 and S15, read-out: rCTR pIC50 (converted)) [µM]	IC50 (rCTR; SPA, BHK cell membranes, 125I-Calcitonin 75 pM, 120 min 25 °C, read-out: rCTR IC50) [µM]	IC50 (hAMY3R; SPA binding assay, Tables S13 and S15, read-out: hAMY3R pIC50 (converted)) [µM]	IC50 (hAMY3R; SPA, BHK cell membranes, 125I-rat amylin, 120 min 25 °C, read-out: hAMY3R IC50) [µM]	ratio hCTR/hAMY3R (hAMY3R)	hCTR pIC50 (hCTR; [9])	rCTR pIC50 (rCTR; [9])	hAMY3R pIC50 (hAMY3R; [9])
CC[C@H](C)[C@H](NC(=O)[C@H](C)NC(=O)CNC(=O)[C@H](Cc1ccccc1)NC(=O)[C@H](CC(N)=O)NC(=O)[C@@H]1CCCN1C(=O)[C@H](CO)NC(=O)[C@H](CO)NC(=O)[C@H](Cc1c[nH]cn1)NC(=O)[C@H](CCCNC(=N)N)NC(=O)[C@H](CC(C)C)NC(=O)[C@H](Cc1ccccc1)NC(=O)[C@H](CC(N)=O)NC(=O)[C@H](C)NC(=O)[C@H](CC(C)C)NC(=O)[C@H](CCCNC(=N)N)NC(=O)[C@H](CCC(N)=O)NC(=O)[C@@H](NC(=O)[C@H](C)NC(=O)[C@@H]1CSSC[C@H](NC(=O)[C@H](CCCCN)NC(=O)CC[C@H](NC(=O)CCCCCCCCCCCCCCCCCCC(=O)O)C(=O)O)C(=O)N[C@@H](CC(N)=O)C(=O)N[C@@H]([C@@H](C)O)C(=O)N[C@@H](C)C(=O)N[C@@H]([C@@H](C)O)C(=O)N1)[C@@H](C)O)C(=O)N1CCC[C@H]1C(=O)N[C@@H](CO)C(=O)N[C@@H](CO)C(=O)N[C@H](C(=O)N[C@@H](CC(N)=O)C(=O)N[C@H](C(=O)NCC(=O)N[C@@H](Cc1c[nH]cn1)C(=O)N[C@@H](CC(N)=O)C(=O)N[C@H](C(=O)N[C@@H](Cc1ccc(O)cc1)C(N)=O)[C@@H](C)O)C(C)C)[C@@H](C)O [Peptide 17]	≥ 200	≥ 200	≥ 200	≥ 200	≥ 200	≥ 200	≥ 200	0.0141	0.0141	0.0501	0.0498	0.000479	0.000484	29	–	–	–
CC[C@H](C)[C@H](NC(=O)[C@H](C)NC(=O)CNC(=O)[C@H](Cc1ccccc1)NC(=O)[C@H](CC(N)=O)NC(=O)[C@@H]1CCCN1C(=O)[C@H](CO)NC(=O)[C@H](CO)NC(=O)[C@H](Cc1c[nH]cn1)NC(=O)[C@H](CCCNC(=N)N)NC(=O)[C@H](CC(C)C)NC(=O)[C@H](Cc1ccccc1)NC(=O)[C@H](CC(N)=O)NC(=O)[C@H](C)NC(=O)[C@H](CC(C)C)NC(=O)[C@H](CCCNC(=N)N)NC(=O)[C@H](CCC(N)=O)NC(=O)[C@@H](NC(=O)[C@H](C)NC(=O)[C@@H]1CSSC[C@H](NC(=O)[C@H](CCCNC(=N)N)NC(=O)CNC(=O)CC[C@H](NC(=O)CCCCCCCCCCCCCCCCCCC(=O)O)C(=O)O)C(=O)N[C@@H](CC(N)=O)C(=O)N[C@@H]([C@@H](C)O)C(=O)N[C@@H](C)C(=O)N[C@@H]([C@@H](C)O)C(=O)N1)[C@@H](C)O)C(=O)N1CCC[C@H]1C(=O)N[C@@H](CO)C(=O)N[C@@H](CO)C(=O)N[C@H](C(=O)N[C@@H](CC(N)=O)C(=O)N[C@H](C(=O)NCC(=O)N[C@@H](CO)C(=O)N[C@@H](Cc1c[nH]cn1)C(=O)N[C@H](C(=O)N[C@@H](Cc1ccc(O)cc1)C(N)=O)[C@@H](C)O)C(C)C)[C@@H](C)O [Peptide 19] ({C20 diacid-γGlu}-GRCNTATCATQRLANFLRHSSPNFGAIPSSTNVGSHTY-NH2; disulfide 3-8)	≥ 200	≥ 200	≥ 200	50 (≈ 224 µg/mL)	68 (≈ 305 µg/mL)	≥ 200	≥ 200	–	–	–	–	–	–	45	7.81	7.77	9.46
